Data from ChEMBL document CHEMBL5241110, “Medicines for millions of patients” (RSC Med Chem, 2022).

Tests used:
[1] = system: Rocuronium; assay: Binding affinity to rocuronium by ITC method
[2] = system: Pancuronium; assay: Binding affinity to pancuronium

SMILES | Ka [1] | Ka [2] [M⁻¹]
O=C(O)CCSC[C@H]1O[C@@H]2O[C@H]3[C@H](O)[C@@H](O)[C@@H](O[C@H]4[C@H](O)[C@@H](O)[C@@H](O[C@H]5[C@H](O)[C@@H](O)[C@@H](O[C@H]6[C@H](O)[C@@H](O)[C@@H](O[C@H]7[C@H](O)[C@@H](O)[C@@H](O[C@H]8[C@H](O)[C@@H](O)[C@@H](O[C@H]9[C@H](O)C(O)[C@@H](O[C@H]1[C@H](O)[C@H]2O)O[C@@H]9CSCCC(=O)O)O[C@@H]8CSCCC(=O)O)O[C@@H]7CSCCC(=O)O)O[C@@H]6CSCCC(=O)O)O[C@@H]5CSCCC(=O)O)O[C@@H]4CSCCC(=O)O)O[C@@H]3CSCCC(=O)O (some centres not stated) | 1.05 10^7 M^-1 | –
CC(=O)O[C@@H]1C[C@H]2CCC3C4C[C@H]([N+]5(C)CCCCC5)[C@H](OC(C)=O)[C@@]4(C)CCC3[C@@]2(C)C[C@@H]1[N+]1(C)CCCCC1 (some centres not stated) | – | 167
